Reference: patent publication US9580418B2, “Bicyclic aromatic carboxamide compounds useful as Pim kinase inhibitors” (Incyte Corporation, priority 2014, dated 2017)
pIC50: −log10 of the molar value.

Legend:
[1] = target: Pim-1 (Homo sapiens (Human), UniProt P11309); assay: Pim-1 kinase assay (Pim enzyme assays, Example A); type: biochemical; settings: 1 mM ATP, BAD peptide substrate; read-out: PIM1 IC50
Experimental: (§1) Pim-1 and Pim-3 kinase assays-20 μL reactions were run in white 384 well polystyrene plates dotted with 0.8 μL compound/DMSO in the assay buffer (50 mM Tris, pH 7.5, 0.01% Tween-20, 5 mM mgCl2, 0.01% BSA, 5 mM DTT), containing 0.05 μM Biotin-labeled BAD peptide substrate (AnaSpec 62269), 1 mM ATP, and 2.5 pM (Pim-1, Invitrogen PV3503) or 1.25 pM (Pim-3, Millipore 14-738) enzyme for 1 h at 25° C. Reactions were stopped by addition of 10 μL STOP Buffer (150 mM Tris, pH=7.5, 150 mM NaCl, 75 mM EDTA, 0.01% Tween-20, 0.3% BSA,) supplemented with Phospho-Bad (Ser112) Antibody (Cell Signaling 9291) diluted 666-fold, and Streptavidin donor beads (PerkinElmer 6760002) along with Protein-A acceptor beads (PerkinElmer 6760137) at 15 μg/mL each. Supplementation of the STOP buffer with beads and stopping the reactions were done under reduced light. Prior to the stopping reactions STOP buffer with beads was preincubated for 1 h in the dark at room temperature. After stopping the reactions, plates were incubated for 1 h in the dark at room temperature before reading on a PHERAstar FS plate reader (BMG Labtech) under reduced light.

[2] = target: Pim-2 (Homo sapiens (Human), UniProt Q9P1W9); assay: Pim-2 kinase assay (Pim enzyme assays, Example A); type: biochemical; settings: 1 mM ATP, CREBtide peptide substrate; read-out: PIM2 IC50
Pim-2, sequence (Q9P1W9 whole entry): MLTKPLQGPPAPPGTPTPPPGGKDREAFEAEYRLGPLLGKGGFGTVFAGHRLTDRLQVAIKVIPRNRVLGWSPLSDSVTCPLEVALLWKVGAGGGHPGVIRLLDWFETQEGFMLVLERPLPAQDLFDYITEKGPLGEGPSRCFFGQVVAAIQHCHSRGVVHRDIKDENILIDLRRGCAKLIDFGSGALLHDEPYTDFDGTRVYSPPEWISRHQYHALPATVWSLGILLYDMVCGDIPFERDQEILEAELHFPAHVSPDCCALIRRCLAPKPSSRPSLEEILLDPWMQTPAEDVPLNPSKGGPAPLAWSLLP
Experimental: Pim-2 kinase assay-20 μL reactions were run in white 384 well polystyrene plates dotted with 0.8 μL compound/DMSO in the assay buffer (50 mM Tris, pH 7.5, 0.01% Tween-20, 5 mM mgCl2, 0.01% BSA, 5 mM DTT), containing 0.05 μM Fluorescein-labeled CREBtide peptide substrate (Invitrogen PV3508), 1 mM ATP, and 1 nM enzyme (Invitrogen PV3649) for 2 h at 25° C. Reactions were stopped by addition of 10 μL TR-FRET Dilution Buffer (Invitrogen PV3574) with 30 mM EDTA and 1.5 nM LanthaScreen Tb-CREB pSer133 antibody (Invitrogen PV3566). After 30 min. incubation at room temperature, plates were read on a PHERAstar FS plate reader (BMG Labtech).

[3] = target: Pim-3 (Homo sapiens (Human), UniProt Q86V86); assay: Pim-3 kinase assay (Pim enzyme assays, Example A); type: biochemical; settings: 1 mM ATP, BAD peptide substrate; read-out: PIM3 IC50
Experimental: as §1

[4] = system: pBAD in KMS.12.BM cells; assay: Pim pBAD signaling assay in KMS.12.BM cells (Example B); type: cell-based; settings: Homo sapiens, 2.5 h incubation, pBAD ELISA
Experimental: KG-1A cells are purchased from ATCC (Manassas, Va.) and KMS.12.BM cells are purchased from NIBIO, JCRB cell bank (Tokyo, Japan) and maintained in the culture mediums recommended, RPMI, 10% FBS and IMDM 20% FBS (Mediatech, Manassas, Va.) respectively. To measure the pBAD inhibitory activity of the compounds, both cell lines are plated with the culture medium (1×10^6/well/100 μL for KG1A and 4×10^5 cells/well/in 100 μL for KMS12BM) into 96-well V bottom polypropylene plates (Matrix, Thermo Fisher, USA) and incubated 30 min. at 37° C. to normalize cell signaling from handling. Test compounds are added at an appropriate concentration range and further incubated for 2.5 h for KMS.12.BM cells and 4 h for KG1-A cells. Plates are centrifuged at 2000 RPM for 10 min. and supernatants aspirated. 100 μL lysis buffer with protease inhibitors (Cell Signaling Technologies, Danver, Mass., Sigma, St Louis Mo., EMD, USA) is added to the pellets, mixed well and set on ice for 30 min. Lysates are frozen overnight at −80° C. To measure the pBAD activity, a Cell Signaling ELISA kit (Cell Signaling Path Scan phosphor pBAD ELISA) is utilized. 50 μL of the lysate is tested per the ELISA protocol and the data analysis is performed by software on a SpectrMax5 plate reader (Molecular Devices, Sunnyvale, Calif.). IC50 determination is performed by fitting the curve of percent inhibition versus the log of the inhibitor concentration using the GraphPad Prism 5.0 software.

Pim-1, sequence (P11309 whole entry): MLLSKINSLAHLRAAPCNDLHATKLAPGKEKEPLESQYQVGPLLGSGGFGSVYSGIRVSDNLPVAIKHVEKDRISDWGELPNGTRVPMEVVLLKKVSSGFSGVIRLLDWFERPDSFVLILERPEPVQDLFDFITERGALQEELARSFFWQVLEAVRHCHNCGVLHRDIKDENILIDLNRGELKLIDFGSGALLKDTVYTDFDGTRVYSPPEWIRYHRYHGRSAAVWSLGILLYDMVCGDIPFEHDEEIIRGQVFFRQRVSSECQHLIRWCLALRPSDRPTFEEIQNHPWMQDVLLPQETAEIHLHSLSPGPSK

| Compound | pIC50 [1] | pIC50 [2] | pIC50 [3] | pIC50 [4] |
| --- | --- | --- | --- | --- |
| C[C@@H]1C[C@H](N)CN(c2ccncc2NC(=O)c2ccc3ncc(-c4c(F)cccc4F)cc3n2)C1 [Example 1, N-{4-[(3S,5R)-3-Amino-5-methylpiperidin-1-yl]pyridin-3-yl}-7-(2,6-difluorophenyl)-1,5-naphthyridine-2-carboxamide] | ≥ 8.00 | ≥ 7.00 | ≥ 8.00 | ≥ 7.30 |
| CC(C)c1cnc2ccc(C(=O)Nc3cnccc3N3C[C@H](C)C[C@H](N)C3)nc2c1 [Example 2, N-{4-[(3S,5R)-3-Amino-5-methylpiperidin-1-yl]pyridin-3-yl}-7-isopropyl-1,5-naphthyridine-2-carboxamide] | ≥ 8.00 | ≥ 7.00 | ≥ 8.00 | ≥ 7.30 |
| C[C@@H]1C[C@H](N)CN(c2ccncc2NC(=O)c2ccc3ncc(C4CCOCC4)cc3n2)C1 [Example 3, N-{4-[(3S,5R)-3-Amino-5-methylpiperidin-1-yl]pyridin-3-yl}-7-(tetrahydro-2H-pyran-4-yl)-1,5-naphthyridine-2-carboxamide] | ≥ 8.00 | 6.00 to 7.00 | ≥ 8.00 | ≥ 7.30 |
| COc1cc(F)c(-c2cnc3ccc(C(=O)Nc4cnccc4N4C[C@H](C)C[C@H](N)C4)nc3c2)c(F)c1 [Example 4, N-{4-[(3S,5R)-3-Amino-5-methylpiperidin-1-yl]pyridin-3-yl}-7-(2,6-difluoro-4-methoxyphenyl)-1,5-naphthyridine-2-carboxamide] | ≥ 8.00 | ≥ 7.00 | ≥ 8.00 | ≥ 7.30 |
| CCn1cc(-c2cnc3ccc(C(=O)Nc4cnccc4N4C[C@H](C)C[C@H](N)C4)nc3c2)cn1 [Example 5, N-{4-[(3S,5R)-3-Amino-5-methylpiperidin-1-yl]pyridin-3-yl}-7-(1-ethyl-1H-pyrazol-4-yl)-1,5-naphthyridine-2-carboxamide] | ≥ 8.00 | 6.00 to 7.00 | ≥ 8.00 | ≥ 7.30 |
| CC(C)c1cnc2ccc(C(=O)Nc3cnccc3N3C[C@@H](N)[C@H](O)[C@@H](C)C3)nc2c1 [Example 6] | ≥ 8.00 | ≥ 7.00 | ≥ 8.00 | ≥ 7.30 |
| COc1ccc(-c2cnc3ccc(C(=O)Nc4cnccc4N4C[C@@H](N)[C@H](O)[C@@H](C)C4)nc3c2)cn1 [Example 7, N-{4-[(3R,4R,5S)-3-Amino-4-hydroxy-5-methylpiperidin-1-yl]pyridin-3-yl}-7-(6-methoxypyridin-3-yl)-1,5-naphthyridine-2-carboxamide] | ≥ 8.00 | ≥ 7.00 | ≥ 8.00 | ≥ 7.30 |
| C[C@H]1CN(c2ccncc2NC(=O)c2ccc3ncc(N4CCOCC4)cc3n2)C[C@@H](N)[C@@H]1O [Example 8, N-{4-[(3R,4R,5S)-3-Amino-4-hydroxy-5-methylpiperidin-1-yl]pyridin-3-yl}-7-morpholin-4-yl-1,5-naphthyridine-2-carboxamide] | ≥ 8.00 | 6.00 to 7.00 | ≥ 8.00 | ≥ 7.30 |
| CCc1ccc2ccc(C(=O)Nc3cnccc3N3C[C@@H](N)[C@H](O)[C@@H](C)C3)nc2c1 [Example 9, N-{4-[(3R,4R,5S)-3-Amino-4-hydroxy-5-methylpiperidin-1-yl]pyridin-3-yl}-7-ethylquinoline-2-carboxamide] | ≥ 8.00 | 6.00 to 7.00 | ≥ 8.00 | ≥ 7.30 |
| CC(C)c1ccc2ccc(C(=O)Nc3cnccc3N3C[C@@H](N)[C@H](O)[C@@H](C)C3)nc2c1 [Example 10, N-{4-[(3R,4R,5S)-3-Amino-4-hydroxy-5-methylpiperidin-1-yl]pyridin-3-yl}-7-isopropylquinoline-2-carboxamide] | ≥ 8.00 | ≥ 7.00 | ≥ 8.00 | ≥ 7.30 |
| C[C@H]1CN(c2ccncc2NC(=O)c2ccc3ccc(C4CCOCC4)cc3n2)C[C@@H](N)[C@@H]1O [Example 11, N-{4-[(3R,4R,5S)-3-Amino-4-hydroxy-5-methylpiperidin-1-yl]pyridin-3-yl}-7-(tetrahydro-2H-pyran-4-yl)quinoline-2-carboxamide] | ≥ 8.00 | 6.00 to 7.00 | ≥ 8.00 | 6.60 to 7.30 |
| C[C@H]1CN(c2ccncc2NC(=O)c2ccc3ccc(N4CCOCC4)cc3n2)C[C@@H](N)[C@@H]1O [Example 12, N-{4-[(3R,4R,5S)-3-Amino-4-hydroxy-5-methylpiperidin-1-yl]pyridin-3-yl}-7-morpholin-4-ylquinoline-2-carboxamide] | ≥ 8.00 | ≥ 7.00 | ≥ 8.00 | ≥ 7.30 |
| C[C@@H]1C[C@H](N)CN(c2ccncc2NC(=O)c2ccc3ccc(N4CCOCC4)cc3n2)C1 [Example 13, N-{4-[(3S,5R)-3-Amino-5-methylpiperidin-1-yl]pyridin-3-yl}-7-morpholin-4-ylquinoline-2-carboxamide] | ≥ 8.00 | ≥ 7.00 | ≥ 8.00 | ≥ 7.30 |
| C[C@H]1CN(c2ccncc2NC(=O)c2ccc3ccc(N4CCC5(CCOCC5)CC4)cc3n2)C[C@@H](N)[C@@H]1O [Example 14, N-{4-[(3R,4R,5S)-3-Amino-4-hydroxy-5-methylpiperidin-1-yl]pyridin-3-yl}-7-(3-oxa-9-azaspiro[5.5]undec-9-yl)quinoline-2-carboxamide] | ≥ 8.00 | ≥ 7.00 | ≥ 8.00 | 6.60 to 7.30 |
| C[C@H]1CN(c2ccncc2NC(=O)c2ccc3ccc(N4CCC(C(F)(F)F)C4)cc3n2)C[C@@H](N)[C@@H]1O (stereo partly drawn) [Example 28, N-{4-[(3R,4R,5S)-3-Amino-4-hydroxy-5-methylpiperidin-1-yl]pyridin-3-yl}-7-[3-(trifluoromethyl)pyrrolidin-1-yl]quinoline-2-carboxamide] | ≥ 8.00 | 6.00 to 7.00 | ≥ 8.00 |  |
| C[C@@H]1C[C@H](N)CN(c2ccncc2NC(=O)c2ccc3ccc(N4CCC(C(F)(F)F)C4)cc3n2)C1 (stereo partly drawn) [Example 29, N-{4-[(3S,5R)-3-Amino-5-methylpiperidin-1-yl]pyridin-3-yl}-7-[3-(trifluoromethyl)pyrrolidin-1-yl]quinoline-2-carboxamide] | ≥ 8.00 | 6.00 to 7.00 | ≥ 8.00 |  |
| C[C@H]1CN(c2ccncc2NC(=O)c2ccc3ccc(N4CC(C)(C)C4)cc3n2)C[C@@H](N)[C@@H]1O [Example 32, N-{4-[(3R,4R,5S)-3-Amino-4-hydroxy-5-methylpiperidin-1-yl]pyridin-3-yl}-7-(3,3-dimethylazetidin-1-yl)quinoline-2-carboxamide] | ≥ 8.00 | 6.00 to 7.00 | ≥ 8.00 |  |
| C[C@@H]1C[C@H](N)CN(c2ccncc2NC(=O)c2ccc3ccc(N4CC(C)(C)C4)cc3n2)C1 [Example 33, N-{4-[(3S,5R)-3-Amino-5-methylpiperidin-1-yl]pyridin-3-yl}-7-(3,3-dimethylazetidin-1-yl)quinoline-2-carboxamide] | ≥ 8.00 | 5.00 to 6.00 | ≥ 8.00 |  |
| N[C@@H]1CN(c2ccncc2NC(=O)c2ccc3ncc(N4CCC5(CCOCC5)CC4)cc3n2)C[C@H](C2CC2)[C@H]1O [Example 40, N-{4-[(3R,4R,5S)-3-Amino-5-cyclopropyl-4-hydroxypiperidin-1-yl]pyridin-3-yl}-7-(3-oxa-9-azaspiro[5.5]undec-9-yl)-1,5-naphthyridine-2-carboxamide] | ≥ 8.00 | 6.00 to 7.00 | ≥ 8.00 |  |
